In brackets after ≈: the same amount, converted by molar mass. Where two headings read alike, the source gives them in different places.
How the values were obtained:
[1] = Salt screening (slurry crystallization); type: physicochemical; set-up: key to Salt screening result: (+) shows that a crystalline salt was formed; (−) physical mixtures; settings: for Salt screening result: slurry 50° C. then 25° C.; for Polymorph obtained in salt screening: XRPD
Protocol: About 45 mg was added to a suitable solvent and different equivalents of acids were added under stirring at 50° C. for about 2 hours and then at 25° C. for at least 32 hours. Ethanol, acetone, and ACN were used as screening solvents. When no precipitation was obtained or only a few solids were obtained, the solutions were placed at 5° C. for crystallization.
(§1) Obtained suspensions were taken out and centrifuged. Solids obtained was analysed by XRPD. Salts with high or medium crystallinity were further characterized (see Table 5).

[2] = Crystallinity by XRPD; type: physicochemical
Protocol: as §1
(§2) According to the salt screening results (see Table 4), totally 19 potential salt hits were identified. All the potential salt hits were further investigated by Differential Scanning Calorimetry (DSC), Thermogravimetric analysis (TGA), H-NMR, Ion chromatography (IC), Karl Fischer titration (KF), and Polarized Light Microscopy (PLM) to confirm their identity and evaluate their physicochemical properties as shown in Table 5 below.

[3] = Thermogravimetric analysis (TGA) weight loss; type: physicochemical; settings: salt screening sample, at the temperature given (80-200° C.)
Description: as §2

[4] = type: physicochemical
Description: as §2

[5] = type: physicochemical; settings: for Initial chemical purity (%): before storage; for chemical purity (%): solid state; for chemical purity (%) / Bulk stability: 1 week; for Bulk stability: stressed conditions: 25° C./92% RH
[6] = Solubility in pH buffers and bio-relevant media at 37° C.; type: physicochemical; settings: thermodynamic from solid
[7] = Dynamic vapor sorption (DVS) test at 25° C.; type: physicochemical; settings: for 1st Desorp. (%) / 2nd Sorp. (%) / 1st Sorp. (%) / 2nd Desorp. (%) / Desorp. (%) / Sorp. (%) / Water absorbed from 40% RH to 95% RH: 25° C.; for 1st Desorp. (%) / 2nd Sorp. (%) / 1st Sorp. (%) / 2nd Desorp. (%): cycle 40-95-0-95-40% RH; for Hygroscopicity / XRPD after DVS test: DVS at 25° C.; for Hygroscopicity: grade in words; for Desorp. (%) / Sorp. (%): cycle 40-0-95-0-40% RH
[8] = Thermogravimetric analysis (TGA) weight loss; type: physicochemical; settings: large scale batch
[9] = Solubility in water at 25° C.; settings: thermodynamic from solid
[10] = Hygroscopicity (water uptake) of salt hits; type: physicochemical; settings: salt screening sample; for Hygroscopicity: grade in words
Description: as §2

[11] = large scale batch, listed as free base (polymorph B)
[12] = aqueous buffer, pH 4.5 (50 mM) acetate buffer, tested up to 2 mg/mL
[13] = aqueous buffer, pH 6.8 (50 mM) phosphate buffer, tested up to 2 mg/mL
[14] = pH 1.2 HCl buffer (0.1N HCl), simulated gastric fluid, pH 1.2 (0.1N HCl), tested up to 2 mg/mL
[15] = simulated gastric fluid, SGF, pH 2.0, tested up to 2 mg/mL
[16] = FaSSIF-V1, pH 6.5, tested up to 2 mg/mL
[17] = FeSSIF-V1, pH 5.0, tested up to 2 mg/mL
[18] = at the temperature printed in the same cell (100-170° C.)
[19] = listed as hydrochloride salt (polymorph A)

COc1cc(C(F)(F)F)c(OC)cc1[C@@H]1CCCNC1 [Free base (Polymorph B), (S)-3-(2,5-dimethoxy-4-(trifluoromethyl)phenyl)piperidine]
Salt screening result ([1]; ACN): Clear solution
Salt screening result ([1]; Acetone): Clear solution
Salt screening result ([1]; EtOH): Clear solution
Crystallinity ([2]; large scale batch): High
Crystallinity [2, 11]: high crystallinity
Crystallinity ([2]; salt screening sample): High
Weight loss (%) [3]: 8.0%
Water content (% w/w) ([4]; large scale batch): 8.0% w/w
Water content (% w/w) [4, 11]: about 8 % w/w
Water content (% w/w) ([4]; salt screening sample): 8% w/w
Initial chemical purity (%) [5]: 98.7%
chemical purity (%) ([5]; 25° C./92% RH, open container): 98.7%
chemical purity (%) ([5]; 40° C./75% RH, open container): 98.8%
chemical purity (%) ([5]; 60° C., tight container): 98.5%
Bulk stability ([5]; 40° C./75% RH, 60° C.): chemically stable in these conditions, but physically unstable at 60 °C
solubility at 2 h [6, 12]: > 2000 µg/mL
solubility at 24 h [6, 12]: > 2000 µg/mL
solubility at 2 h [6, 13]: 1540 µg/mL (≈ 5.32 mM)
solubility at 24 h [6, 13]: 1580 µg/mL (≈ 5.46 mM)
solubility at 2 h [6, 14]: > 2000 µg/mL
solubility at 24 h [6, 14]: > 2000 µg/mL
solubility at 2 h [6, 15]: > 2000 µg/mL
solubility at 24 h [6, 15]: > 2000 µg/mL
solubility at 2 h [6, 16]: > 2000 µg/mL
solubility at 24 h [6, 16]: > 2000 µg/mL
solubility at 2 h [6, 17]: > 2000 µg/mL
solubility at 24 h [6, 17]: > 2000 µg/mL
solubility at 2 h ([6]; Water, tested up to 2 mg/mL): 110 µg/mL (≈ 0.38 mM)
solubility at 24 h ([6]; Water, tested up to 2 mg/mL): 140 µg/mL (≈ 0.484 mM)
1st Desorp. (%) ([7]; 0% RH): 0.02%
2nd Sorp. (%) ([7]; 0% RH): 0.02%
1st Desorp. (%) ([7]; 10% RH): 0.20%
2nd Sorp. (%) ([7]; 10% RH): 0.002%
1st Desorp. (%) ([7]; 20% RH): 6.07%
2nd Sorp. (%) ([7]; 20% RH): 0.007%
1st Desorp. (%) ([7]; 30% RH): 6.29%
2nd Sorp. (%) ([7]; 30% RH): 0.02%
1st Desorp. (%) ([7]; 40% RH): 8.54%
1st Sorp. (%) ([7]; 40% RH): 8.34%
2nd Desorp. (%) ([7]; 40% RH): 8.23%
2nd Sorp. (%) ([7]; 40% RH): 0.02%
1st Desorp. (%) ([7]; 50% RH): 8.90%
1st Sorp. (%) ([7]; 50% RH): 8.83%
2nd Desorp. (%) ([7]; 50% RH): 8.76%
2nd Sorp. (%) ([7]; 50% RH): 0.04%
1st Desorp. (%) ([7]; 60% RH): 8.90%
1st Sorp. (%) ([7]; 60% RH): 8.90%
2nd Desorp. (%) ([7]; 60% RH): 8.79%
2nd Sorp. (%) ([7]; 60% RH): 0.06%
1st Desorp. (%) ([7]; 70% RH): 8.97%
1st Sorp. (%) ([7]; 70% RH): 8.96%
2nd Desorp. (%) ([7]; 70% RH): 8.87%
2nd Sorp. (%) ([7]; 70% RH): 0.12%
1st Desorp. (%) ([7]; 80% RH): 9.03%
1st Sorp. (%) ([7]; 80% RH): 9.02%
2nd Desorp. (%) ([7]; 80% RH): 8.95%
2nd Sorp. (%) ([7]; 80% RH): 3.80%
1st Desorp. (%) ([7]; 90% RH): 9.13%
1st Sorp. (%) ([7]; 90% RH): 9.11%
2nd Desorp. (%) ([7]; 90% RH): 9.06%
2nd Sorp. (%) ([7]; 90% RH): 9.00%
1st Desorp. (%) ([7]; 95% RH): 9.21%
1st Sorp. (%) ([7]; 95% RH): 9.21%
2nd Desorp. (%) ([7]; 95% RH): 9.14%
2nd Sorp. (%) ([7]; 95% RH): 9.14%
Hygroscopicity [7]: undergoes dehydration when relative humidity is below 40%
Weight loss (%) at Temperature (° C.) [8, 18]: 8.0 at %
Weight loss (%) at Temperature (° C.) ([8]; at the temperature printed in the same cell (100-170° C.), listed as free base (polymorph B)): about 8%
solubility at 2 h [9]: 110 µg/mL (≈ 0.38 mM)
solubility at 24 h [9]: 140 µg/mL (≈ 0.484 mM)

COc1cc(C(F)(F)F)c(OC)cc1[C@@H]1CCCNC1.Cl [HCl salt of (S)-3-(2,5-dimethoxy-4-(trifluoromethyl)phenyl)piperidine]
Polymorph obtained in salt screening ([1]; ACN): Polymorph A
Salt screening result ([1]; ACN): +
Polymorph obtained in salt screening ([1]; Acetone): Polymorph A
Salt screening result ([1]; Acetone): +
Polymorph obtained in salt screening ([1]; EtOH): Polymorph A
Salt screening result ([1]; EtOH): +
Crystallinity ([2]; large scale batch): High
Crystallinity ([2]; large scale batch, listed as hydrochloride salt (polymorph A)): high crystallinity
Crystallinity ([2]; salt screening sample): High
Weight loss (%) [3]: 0.08%
Hygroscopicity [10]: None
Initial chemical purity (%) [5]: 99.8%
chemical purity (%) ([5]; 25° C./92% RH, open container): 99.8%
chemical purity (%) ([5]; 40° C./75% RH, open container): 99.8%
chemical purity (%) ([5]; 60° C., tight container): 99.8%
Bulk stability ([5]; 40° C./75% RH, 60° C.): chemically and physically stable
Desorp. (%) ([7]; 0% RH): 0.01%
Sorp. (%) ([7]; 0% RH): 0.00%
Desorp. (%) ([7]; 10% RH): 0.01%
Sorp. (%) ([7]; 10% RH): 0.01%
Desorp. (%) ([7]; 20% RH): 0.012%
Sorp. (%) ([7]; 20% RH): 0.01%
Water absorbed from 40% RH to 95% RH [7]: about 0.17%
Desorp. (%) ([7]; 30% RH): 0.03%
Sorp. (%) ([7]; 30% RH): 0.01%
Desorp. (%) ([7]; 40% RH): 0.03%
Sorp. (%) ([7]; 40% RH): 0.01%
Desorp. (%) ([7]; 50% RH): 0.04%
Sorp. (%) ([7]; 50% RH): 0.01%
Desorp. (%) ([7]; 60% RH): 0.04%
Sorp. (%) ([7]; 60% RH): 0.02%
Desorp. (%) ([7]; 70% RH): 0.04%
Sorp. (%) ([7]; 70% RH): 0.03%
Desorp. (%) ([7]; 80% RH): 0.07%
Sorp. (%) ([7]; 80% RH): 0.05%
Desorp. (%) ([7]; 90% RH): 0.12%
Sorp. (%) ([7]; 90% RH): 0.12%
Desorp. (%) ([7]; 95% RH): 0.19%
Sorp. (%) ([7]; 95% RH): 0.19%
Hygroscopicity [7, 19]: non-hygroscopic
XRPD after DVS test [7, 19]: No form changes
Weight loss (%) at Temperature (° C.) ([8]; at the temperature (100-170° C.), listed as hydrochloride salt (polymorph A)): about 0.3%
Weight loss (%) at Temperature (° C.) [8, 18]: 0.3 at %

COc1cc(C(F)(F)F)c(OC)cc1[C@@H]1CCCNC1.O=C(O)C[C@H](O)C(=O)O [L-malate salt Polymorph A]
Polymorph obtained in salt screening ([1]; ACN): Polymorph A
Salt screening result ([1]; ACN): +
Polymorph obtained in salt screening ([1]; Acetone): Polymorph A
Salt screening result ([1]; Acetone): +
Polymorph obtained in salt screening ([1]; EtOH): Polymorph A
Salt screening result ([1]; EtOH): +
Crystallinity ([2]; salt screening sample): High
Weight loss (%) [3]: 2.3%
Water content (% w/w) ([4]; salt screening sample): 5.9% w/w
Hygroscopicity (water uptake % w/w) [10]: (~0.3%) % w/w

COc1cc(C(F)(F)F)c(OC)cc1[C@@H]1CCCNC1.O=C(O)C(O)C(O)C(=O)O [L-tartrate salt (Polymorph B, anhydrate), L-tartaric acid salt of (S)-3-(2,5-dimethoxy-4-(trifluoromethyl)phenyl)piperidine]
Polymorph obtained in salt screening ([1]; ACN): Polymorph B
Salt screening result ([1]; ACN): +
Polymorph obtained in salt screening ([1]; Acetone): Polymorph B
Salt screening result ([1]; Acetone): +
Polymorph obtained in salt screening ([1]; EtOH): Polymorph B
Salt screening result ([1]; EtOH): +
Crystallinity ([2]; large scale batch): High
Crystallinity ([2]; large scale batch, listed as L-tartrate salt Polymorph B): high crystallinity
Crystallinity ([2]; salt screening sample): High
Weight loss (%) [3]: 0.9%
Hygroscopicity [10]: None
Desorp. (%) ([7]; 0% RH): 0.01%
Sorp. (%) ([7]; 0% RH): 0.04%
Desorp. (%) ([7]; 10% RH): 0.03%
Sorp. (%) ([7]; 10% RH): 0.06%
Desorp. (%) ([7]; 20% RH): 0.07%
Sorp. (%) ([7]; 20% RH): 0.08%
Water absorbed from 40% RH to 95% RH [7]: about 1.5%
Desorp. (%) ([7]; 30% RH): 0.10%
Sorp. (%) ([7]; 30% RH): 0.10%
Desorp. (%) ([7]; 40% RH): 0.13%
Sorp. (%) ([7]; 40% RH): 0.12%
Desorp. (%) ([7]; 50% RH): 0.19%
Sorp. (%) ([7]; 50% RH): 0.13%
Desorp. (%) ([7]; 60% RH): 0.29%
Sorp. (%) ([7]; 60% RH): 0.15%
Desorp. (%) ([7]; 70% RH): 0.48%
Sorp. (%) ([7]; 70% RH): 0.19%
Desorp. (%) ([7]; 80% RH): 0.67%
Sorp. (%) ([7]; 80% RH): 0.66%
Desorp. (%) ([7]; 90% RH): 1.18%
Sorp. (%) ([7]; 90% RH): 1.00%
Desorp. (%) ([7]; 95% RH): 1.60%
Sorp. (%) ([7]; 95% RH): 1.60%
XRPD after DVS test [7]: No form changes
Hygroscopicity [7]: slightly hygroscopic
Weight loss (%) at Temperature (° C.) [8, 18]: 0.4 at %
Weight loss (%) at Temperature (° C.) ([8]; at the temperature printed in the same cell (100-170° C.), listed as L-tartrate salt Polymorph B): about 0.4%
